Values quoted from earlier work as cited in patent US20170101678A1, “METHOD FOR SCREENING RISK OF DRUG-INDUCED TOXICITY” (RESEARCH CENTER FOR BIOTECHNOLOGY AND MEDICINE POLICY, priority 2014, published 2017).
Where two headings read alike, the source gives them in different places.

Details: patients treated with INH

NNC(=O)c1ccncc1 [INH, Isoniazid]
patients developing hepatitis or increased liver readings (CYP2E1 1A/1A genotype): 39% | patients developing hepatitis or increased liver readings (CYP2E1 1A/1B genotype): 15%
